Test results published in ChEMBL document CHEMBL6177986, “A Perspective on the Strategic Application of Deconstruction-Reconstruction in Drug Discovery” (J Med Chem, 2025).

What was measured:
[1] = target: T1, Phosphatidylinositol 4,5-bisphosphate 3-kinase catalytic subunit delta isoform (Homo sapiens, UniProt O00329); test: Inhibition of PI3Kdelta (unknown origin)
T1 sequence (O00329 whole entry): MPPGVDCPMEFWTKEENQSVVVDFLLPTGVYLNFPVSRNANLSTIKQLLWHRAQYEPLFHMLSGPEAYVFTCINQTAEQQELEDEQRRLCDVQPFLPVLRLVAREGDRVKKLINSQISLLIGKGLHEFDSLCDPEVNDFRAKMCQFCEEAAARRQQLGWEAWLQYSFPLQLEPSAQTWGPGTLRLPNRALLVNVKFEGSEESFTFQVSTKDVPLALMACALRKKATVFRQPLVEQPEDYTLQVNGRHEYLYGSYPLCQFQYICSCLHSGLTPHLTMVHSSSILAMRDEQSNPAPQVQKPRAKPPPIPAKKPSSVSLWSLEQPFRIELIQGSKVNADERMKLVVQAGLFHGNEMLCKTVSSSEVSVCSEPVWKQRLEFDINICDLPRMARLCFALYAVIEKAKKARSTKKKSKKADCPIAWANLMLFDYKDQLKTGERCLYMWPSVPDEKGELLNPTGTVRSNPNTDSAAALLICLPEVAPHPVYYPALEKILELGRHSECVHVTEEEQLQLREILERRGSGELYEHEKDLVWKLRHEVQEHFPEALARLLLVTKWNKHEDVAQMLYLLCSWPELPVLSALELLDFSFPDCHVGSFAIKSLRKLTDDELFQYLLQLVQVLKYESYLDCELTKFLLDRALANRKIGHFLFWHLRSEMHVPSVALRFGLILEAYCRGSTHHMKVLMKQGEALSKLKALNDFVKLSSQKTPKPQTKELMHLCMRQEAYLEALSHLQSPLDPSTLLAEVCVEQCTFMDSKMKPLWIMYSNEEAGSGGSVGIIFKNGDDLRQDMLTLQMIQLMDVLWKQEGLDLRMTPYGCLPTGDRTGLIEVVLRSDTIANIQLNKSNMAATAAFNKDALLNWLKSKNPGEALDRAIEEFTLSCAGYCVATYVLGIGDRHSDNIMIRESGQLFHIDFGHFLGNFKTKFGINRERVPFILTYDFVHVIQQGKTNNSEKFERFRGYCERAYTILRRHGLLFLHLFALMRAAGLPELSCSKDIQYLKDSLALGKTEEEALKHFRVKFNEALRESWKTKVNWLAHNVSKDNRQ

[2] = target: Phosphatidylinositol 4,5-bisphosphate 3-kinase catalytic subunit alpha isoform (Homo sapiens, UniProt P42336); test: Inhibition of PI3Kalpha (unknown origin)
[3] = target: Phosphatidylinositol 4,5-bisphosphate 3-kinase catalytic subunit beta isoform (Homo sapiens, UniProt P42338); test: Inhibition of PI3Kbeta (unknown origin)
[4] = target: Phosphatidylinositol 4,5-bisphosphate 3-kinase catalytic subunit gamma isoform (Homo sapiens, UniProt P48736); test: Inhibition of PI3Kgamma (unknown origin)
Phosphatidylinositol 4,5-bisphosphate 3-kinase catalytic subunit gamma isoform, sequence (P48736 whole entry, canonical isoform): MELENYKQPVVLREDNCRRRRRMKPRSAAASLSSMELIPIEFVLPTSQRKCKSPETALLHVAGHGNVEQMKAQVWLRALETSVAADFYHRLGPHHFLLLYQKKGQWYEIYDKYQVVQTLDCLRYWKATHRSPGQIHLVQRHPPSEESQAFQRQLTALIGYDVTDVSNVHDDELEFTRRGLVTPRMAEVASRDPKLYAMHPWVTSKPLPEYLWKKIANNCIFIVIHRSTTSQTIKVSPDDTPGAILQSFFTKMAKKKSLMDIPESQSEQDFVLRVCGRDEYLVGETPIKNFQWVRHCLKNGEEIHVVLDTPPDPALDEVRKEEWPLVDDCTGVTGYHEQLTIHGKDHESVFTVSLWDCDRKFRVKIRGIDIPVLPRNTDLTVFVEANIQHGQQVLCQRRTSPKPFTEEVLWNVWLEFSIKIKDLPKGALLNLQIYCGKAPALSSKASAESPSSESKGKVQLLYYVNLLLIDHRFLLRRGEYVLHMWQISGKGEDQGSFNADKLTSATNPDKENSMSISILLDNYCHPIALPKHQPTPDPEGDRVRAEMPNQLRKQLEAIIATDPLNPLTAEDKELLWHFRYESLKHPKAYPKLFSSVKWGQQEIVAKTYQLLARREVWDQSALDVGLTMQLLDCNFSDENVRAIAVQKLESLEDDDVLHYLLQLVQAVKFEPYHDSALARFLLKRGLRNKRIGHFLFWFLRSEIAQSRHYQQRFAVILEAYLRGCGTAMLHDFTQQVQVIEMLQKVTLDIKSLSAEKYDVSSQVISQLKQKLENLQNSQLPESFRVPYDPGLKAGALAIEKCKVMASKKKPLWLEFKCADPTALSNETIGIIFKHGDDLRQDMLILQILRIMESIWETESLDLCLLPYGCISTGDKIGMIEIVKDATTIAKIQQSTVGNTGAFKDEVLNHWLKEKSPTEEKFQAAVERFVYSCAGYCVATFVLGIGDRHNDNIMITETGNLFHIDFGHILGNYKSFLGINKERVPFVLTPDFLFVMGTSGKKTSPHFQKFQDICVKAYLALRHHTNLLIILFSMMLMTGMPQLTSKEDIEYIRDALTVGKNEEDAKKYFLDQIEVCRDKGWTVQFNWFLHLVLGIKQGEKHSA

Phosphatidylinositol 4,5-bisphosphate 3-kinase catalytic subunit alpha isoform, sequence (P42336 whole entry, canonical isoform): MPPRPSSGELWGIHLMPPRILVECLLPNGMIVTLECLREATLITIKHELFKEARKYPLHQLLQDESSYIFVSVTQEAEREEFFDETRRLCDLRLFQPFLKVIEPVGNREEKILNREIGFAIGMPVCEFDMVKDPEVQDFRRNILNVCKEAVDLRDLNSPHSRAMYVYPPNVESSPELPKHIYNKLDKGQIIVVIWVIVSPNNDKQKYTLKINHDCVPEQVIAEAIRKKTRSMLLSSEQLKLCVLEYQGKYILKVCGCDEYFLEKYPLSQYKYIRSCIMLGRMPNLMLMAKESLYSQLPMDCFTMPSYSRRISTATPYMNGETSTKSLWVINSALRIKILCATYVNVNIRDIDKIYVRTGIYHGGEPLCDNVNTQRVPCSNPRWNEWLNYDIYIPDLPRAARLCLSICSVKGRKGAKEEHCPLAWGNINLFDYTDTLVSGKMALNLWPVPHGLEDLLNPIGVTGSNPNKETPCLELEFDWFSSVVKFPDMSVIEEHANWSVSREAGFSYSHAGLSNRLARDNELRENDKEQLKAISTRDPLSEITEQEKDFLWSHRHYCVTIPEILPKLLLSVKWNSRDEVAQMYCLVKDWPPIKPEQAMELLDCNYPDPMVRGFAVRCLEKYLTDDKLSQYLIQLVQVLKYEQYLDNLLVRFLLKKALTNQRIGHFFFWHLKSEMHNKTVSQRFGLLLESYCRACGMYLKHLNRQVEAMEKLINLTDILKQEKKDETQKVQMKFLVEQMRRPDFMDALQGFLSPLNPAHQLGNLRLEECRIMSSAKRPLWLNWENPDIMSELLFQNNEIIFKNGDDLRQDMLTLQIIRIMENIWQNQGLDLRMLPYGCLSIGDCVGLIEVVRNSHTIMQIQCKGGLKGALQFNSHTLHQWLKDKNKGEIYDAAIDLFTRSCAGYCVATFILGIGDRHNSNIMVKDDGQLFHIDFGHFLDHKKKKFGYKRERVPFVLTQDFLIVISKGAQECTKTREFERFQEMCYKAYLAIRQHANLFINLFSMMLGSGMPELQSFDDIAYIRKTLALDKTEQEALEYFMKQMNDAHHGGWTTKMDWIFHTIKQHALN
Phosphatidylinositol 4,5-bisphosphate 3-kinase catalytic subunit beta isoform, sequence (P42338 whole entry, canonical isoform): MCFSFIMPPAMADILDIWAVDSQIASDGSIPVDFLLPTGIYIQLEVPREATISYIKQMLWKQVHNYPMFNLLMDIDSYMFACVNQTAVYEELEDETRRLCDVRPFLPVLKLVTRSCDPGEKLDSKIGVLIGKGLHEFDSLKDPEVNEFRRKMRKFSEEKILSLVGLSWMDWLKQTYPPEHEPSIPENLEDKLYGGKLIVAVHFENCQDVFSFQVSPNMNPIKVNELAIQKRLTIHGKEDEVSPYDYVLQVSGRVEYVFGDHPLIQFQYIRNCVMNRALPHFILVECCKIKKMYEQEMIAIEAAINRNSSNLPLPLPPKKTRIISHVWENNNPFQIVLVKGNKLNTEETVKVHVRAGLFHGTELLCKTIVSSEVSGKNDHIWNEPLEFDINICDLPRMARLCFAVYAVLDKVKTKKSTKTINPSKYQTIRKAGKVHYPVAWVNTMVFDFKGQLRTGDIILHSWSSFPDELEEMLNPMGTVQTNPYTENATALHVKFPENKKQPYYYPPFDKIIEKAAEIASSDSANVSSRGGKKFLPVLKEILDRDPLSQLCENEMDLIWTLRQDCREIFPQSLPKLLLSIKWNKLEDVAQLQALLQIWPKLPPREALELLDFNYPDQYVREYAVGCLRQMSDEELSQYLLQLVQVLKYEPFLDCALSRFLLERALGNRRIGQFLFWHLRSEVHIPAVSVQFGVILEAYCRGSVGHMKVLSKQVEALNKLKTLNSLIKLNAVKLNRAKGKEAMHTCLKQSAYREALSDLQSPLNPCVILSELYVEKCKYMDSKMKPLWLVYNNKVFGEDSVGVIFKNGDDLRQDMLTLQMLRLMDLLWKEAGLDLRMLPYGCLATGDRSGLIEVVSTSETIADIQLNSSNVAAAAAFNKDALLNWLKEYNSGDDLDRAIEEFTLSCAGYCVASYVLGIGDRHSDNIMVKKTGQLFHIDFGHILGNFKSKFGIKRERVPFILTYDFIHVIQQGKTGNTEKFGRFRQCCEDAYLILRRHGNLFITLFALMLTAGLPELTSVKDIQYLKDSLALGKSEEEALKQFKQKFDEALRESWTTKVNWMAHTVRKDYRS

Row | IC50 [1] | IC50 [2] | IC50 [3] | IC50 [4] | SMILES
1 | 0.006 µM |  |  |  | COc1ncc(C2=CCOCC2)cc1NS(=O)(=O)c1cn(Cc2ccccc2)c(C)n1
2 | 0.16 µM | 2.5 µM | 2.5 µM | 0.79 µM | COc1ncc(-c2ccc3ccncc3c2)cc1NS(C)(=O)=O
3 |  | > 32 µM |  |  | c1cc(-c2ccc3ccncc3c2)c2cc[nH]c2c1
4 |  | > 50 µM | > 50 µM | > 50 µM | c1cc(-c2ccncc2)c2cc[nH]c2c1
5 | 0.25 µM | 6.3 µM | 0.79 µM | 2.5 µM | COc1ncc(-c2ccncc2)cc1NS(C)(=O)=O
